According to patent US12539292B2, “BRM targeting compounds and associated methods of use” (Arvinas Operations, Inc., priority 2018, dated 2026):

Molecular target: T1, BRM (Homo sapiens, UniProt P51531)
T1 construct: In-Cell Western Screen of BRM Degradation in SW1573 Cells; endogenous in cells; host or cells: SW1573
Experiment: In-cell Western screen of BRM degradation in SW1573 cells (Dmax and DC50)
Format: cell-based
Conditions: BRM degradation, SW1573 cells; for DC50: read-out: DC50; for Dmax: when tested at the top concentration of between 0.3 and 10 μM, read-out: Dmax (%) (% degraded)
Outline: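 Near-infrared imaging on a LI-COR Odyssey (800 and 680 nm channels) quantifies BRM remaining in fixed SW1573 cells. Cells are dosed for 18-20 h at 0.1% final DMSO, and degradation is expressed as Dmax and DC50.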

T1 sequence (P51531 whole entry): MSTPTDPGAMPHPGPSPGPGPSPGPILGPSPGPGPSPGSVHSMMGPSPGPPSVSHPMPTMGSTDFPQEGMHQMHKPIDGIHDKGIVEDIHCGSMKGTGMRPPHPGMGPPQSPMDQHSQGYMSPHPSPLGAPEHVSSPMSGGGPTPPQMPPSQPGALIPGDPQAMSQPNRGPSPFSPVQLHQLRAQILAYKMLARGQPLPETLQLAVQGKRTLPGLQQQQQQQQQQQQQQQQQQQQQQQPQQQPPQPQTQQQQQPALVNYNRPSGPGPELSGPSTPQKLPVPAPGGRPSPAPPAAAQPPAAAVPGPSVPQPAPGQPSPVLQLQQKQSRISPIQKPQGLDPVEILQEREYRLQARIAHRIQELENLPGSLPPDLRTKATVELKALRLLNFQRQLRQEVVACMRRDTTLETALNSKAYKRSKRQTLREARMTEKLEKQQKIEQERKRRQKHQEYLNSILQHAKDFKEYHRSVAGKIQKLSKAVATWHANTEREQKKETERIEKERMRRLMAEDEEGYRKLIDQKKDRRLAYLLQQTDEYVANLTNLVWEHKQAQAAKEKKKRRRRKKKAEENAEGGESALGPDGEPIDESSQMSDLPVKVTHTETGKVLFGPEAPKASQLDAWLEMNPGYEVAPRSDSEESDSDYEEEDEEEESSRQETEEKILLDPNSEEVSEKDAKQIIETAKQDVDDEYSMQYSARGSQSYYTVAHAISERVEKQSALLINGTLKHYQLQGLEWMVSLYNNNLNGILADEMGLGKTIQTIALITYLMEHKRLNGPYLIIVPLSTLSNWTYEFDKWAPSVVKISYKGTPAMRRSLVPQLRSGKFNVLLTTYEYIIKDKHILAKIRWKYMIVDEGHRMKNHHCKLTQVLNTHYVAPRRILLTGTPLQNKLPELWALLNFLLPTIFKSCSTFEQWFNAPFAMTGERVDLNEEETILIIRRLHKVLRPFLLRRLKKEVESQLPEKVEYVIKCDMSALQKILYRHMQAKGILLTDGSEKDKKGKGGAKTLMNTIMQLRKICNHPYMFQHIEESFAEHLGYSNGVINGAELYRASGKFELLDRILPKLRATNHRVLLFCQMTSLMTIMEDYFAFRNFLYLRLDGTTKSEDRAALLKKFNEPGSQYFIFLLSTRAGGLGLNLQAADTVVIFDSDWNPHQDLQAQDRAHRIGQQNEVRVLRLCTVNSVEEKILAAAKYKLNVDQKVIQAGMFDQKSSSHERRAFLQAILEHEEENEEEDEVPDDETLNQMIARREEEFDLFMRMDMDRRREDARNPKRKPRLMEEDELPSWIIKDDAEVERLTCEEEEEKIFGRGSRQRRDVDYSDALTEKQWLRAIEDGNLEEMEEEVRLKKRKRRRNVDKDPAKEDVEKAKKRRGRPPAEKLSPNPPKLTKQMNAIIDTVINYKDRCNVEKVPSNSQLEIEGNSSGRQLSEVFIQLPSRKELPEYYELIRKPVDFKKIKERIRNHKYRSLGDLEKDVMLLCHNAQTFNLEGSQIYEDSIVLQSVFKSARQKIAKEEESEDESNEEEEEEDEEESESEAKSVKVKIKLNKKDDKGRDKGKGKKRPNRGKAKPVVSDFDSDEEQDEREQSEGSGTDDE

SMILES	DC50	Dmax
Cc1nccn1-c1ccc([C@H](C)NC(=O)[C@@H]2C[C@@H](O)CN2C(=O)[C@@H](c2cc(OCCN3CCN(CCOc4cc(N5C6CCC5CN(c5cc(-c7ccccc7O)nnc5N)C6)ccn4)CC3)no2)C(C)C)cc1 [compound 76, (2S,4R)-1-((2R)-2-(3-(2-(4-(2-((4-(3-(3-amino-6-(2-hydroxyphenyl)pyridazin-4-yl)-3,8-diazabicyclo[3.2.1]octan-8-yl)pyridin-2-yl)oxy)ethyl)piperazin-1-yl)ethoxy)isoxazol-5-yl)-3-methylbutanoyl)-4-hydroxy-N-((S)-1-(4-(2-methyl-1H-imidazol-1-yl)phenyl)ethyl)pyrrolidine-2-carboxamide]	< 2.5 nM	> 75%
Cc1ncsc1-c1ccc([C@H](C)NC(=O)[C@@H]2C[C@@H](O)CN2C(=O)[C@@H](c2cc(OCCOc3ccc(C(C)n4cc(-c5cc(-c6ccccc6O)nnc5N)cn4)cc3)no2)C(C)C)cc1 (stereo partly drawn) [compound 81, (2S,4R)-1-((2R)-2-(3-(2-(4-(1-(4-(3-amino-6-(2-hydroxyphenyl)pyridazin-4-yl)-1H-pyrazol-1-yl)ethyl)phenoxy)ethoxy)isoxazol-5-yl)-3-methylbutanoyl)-4-hydroxy-N-((S)-1-(4-(4-methylthiazol-5-yl)phenyl)ethyl)pyrrolidine-2-carboxamide]	< 2.5 nM	> 75%
Cc1ncsc1-c1ccc([C@H](C)NC(=O)[C@@H]2C[C@@H](O)CN2C(=O)[C@@H](c2cc(OCCOc3ccc(C(C)n4cc(-c5cc(-c6ccccc6O)nnc5N)cn4)cn3)no2)C(C)C)cc1 (stereo partly drawn) [compound 82, (2S,4R)-1-((2R)-2-(3-(2-((5-(1-(4-(3-amino-6-(2-hydroxyphenyl)pyridazin-4-yl)-1H-pyrazol-1-yl)ethyl)pyridin-2-yl)oxy)ethoxy)isoxazol-5-yl)-3-methylbutanoyl)-4-hydroxy-N-((S)-1-(4-(4-methylthiazol-5-yl)phenyl)ethyl)pyrrolidine-2-carboxamide]	< 2.5 nM	> 75%
Cc1ncsc1-c1ccc([C@H](C)NC(=O)[C@@H]2C[C@@H](O)CN2C(=O)[C@@H](c2cc(OCCN3CCN(Cc4ccc(C(C)n5cc(-c6cc(-c7ccccc7O)nnc6N)cn5)cc4)CC3)no2)C(C)C)cc1 (stereo partly drawn) [compound 83, (2S,4R)-1-((2R)-2-(3-(2-(4-(4-(1-(4-(3-amino-6-(2-hydroxyphenyl)pyridazin-4-yl)-1H-pyrazol-1-yl)ethyl)benzyl)piperazin-1-yl)ethoxy)isoxazol-5-yl)-3-methylbutanoyl)-4-hydroxy-N-((S)-1-(4-(4-methylthiazol-5-yl)phenyl)ethyl)pyrrolidine-2-carboxamide]	< 2.5 nM	> 75%
Cc1ncsc1-c1ccc([C@H](C)NC(=O)[C@@H]2C[C@@H](O)CN2C(=O)[C@@H](c2cc(OC/C=C/c3ccc(O[C@H]4C[C@H](Oc5cc(N6C7CCC6CN(c6cc(-c8ccccc8O)nnc6N)C7)ccn5)C4)cn3)no2)C(C)C)cc1 [compound 86, (2S,4R)-1-((2R)-2-(3-(((E)-3-(5-((1r,3R)-3-((4-(3-(3-amino-6-(2-hydroxyphenyl)pyridazin-4-yl)-3,8-diazabicyclo[3.2.1]octan-8-yl)pyridin-2-yl)oxy)cyclobutoxy)pyridin-2-yl)allyl)oxy)isoxazol-5-yl)-3-methylbutanoyl)-4-hydroxy-N-((S)-1-(4-(4-methylthiazol-5-yl)phenyl)ethyl)pyrrolidine-2-carboxamide]	< 2.5 nM	> 75%
Cc1ncsc1-c1ccc([C@H](C)NC(=O)[C@@H]2C[C@@H](O)CN2C(=O)[C@@H](c2cc(OCCN3CCN(CCCCN4CCOC5(CCN(c6cc(-c7ccccc7O)nnc6N)CC5)C4)CC3)no2)C(C)C)cc1 [compound 91, (2S,4R)-1-((R)-2-(3-(2-(4-(4-(9-(3-amino-6-(2-hydroxyphenyl)pyridazin-4-yl)-1-oxa-4,9-diazaspiro[5.5]undecan-4-yl)butyl)piperazin-1-yl)ethoxy)isoxazol-5-yl)-3-methylbutanoyl)-4-hydroxy-N-((S)-1-(4-(4-methylthiazol-5-yl)phenyl)ethyl)pyrrolidine-2-carboxamide]	< 2.5 nM	> 75%
Cc1ncsc1-c1ccc([C@H](C)NC(=O)[C@@H]2C[C@@H](O)CN2C(=O)[C@@H](c2cc(OCCN3CCC4(CC3)CC(OCCN3CCOC5(CCN(c6cc(-c7ccccc7O)nnc6N)CC5)C3)C4)no2)C(C)C)cc1 [compound 93, (2S,4R)-1-((R)-2-(3-(2-(2-(2-(9-(3-amino-6-(2-hydroxyphenyl)pyridazin-4-yl)-1-oxa-4,9-diazaspiro[5.5]undecan-4-yl)ethoxy)-7-azaspiro[3.5]nonan-7-yl)ethoxy)isoxazol-5-yl)-3-methylbutanoyl)-4-hydroxy-N-((S)-1-(4-(4-methylthiazol-5-yl)phenyl)ethyl)pyrrolidine-2-carboxamide]	< 2.5 nM	> 75%
Cc1ncsc1-c1ccc([C@H](CO)NC(=O)[C@@H]2C[C@@H](O)CN2C(=O)[C@@H](c2cc(OCCN3CCN(CCOc4cc(N5C6CCC5CN(c5cc(-c7ccccc7O)nnc5N)C6)ccn4)CC3)no2)C(C)C)cc1 [compound 100, (2S,4R)-1-((2R)-2-(3-(2-(4-(2-((4-(3-(3-amino-6-(2-hydroxyphenyl)pyridazin-4-yl)-3,8-diazabicyclo[3.2.1]octan-8-yl)pyridin-2-yl)oxy)ethyl)piperazin-1-yl)ethoxy)isoxazol-5-yl)-3-methylbutanoyl)-4-hydroxy-N-((R)-2-hydroxy-1-(4-(4-methylthiazol-5-yl)phenyl)ethyl)pyrrolidine-2-carboxamide]	< 2.5 nM	> 75%
Cc1ncsc1-c1ccc([C@@H](NC(=O)[C@@H]2C[C@@H](O)CN2C(=O)[C@@H](c2cc(OCCN3CCN(CCOc4cc(N5C6CCC5CN(c5cc(-c7ccccc7O)nnc5N)C6)ccn4)CC3)no2)C(C)C)C(F)F)cc1 [compound 102, (2S,4R)-1-((2R)-2-(3-(2-(4-(2-((4-(3-(3-amino-6-(2-hydroxyphenyl)pyridazin-4-yl)-3,8-diazabicyclo[3.2.1]octan-8-yl)pyridin-2-yl)oxy)ethyl)piperazin-1-yl)ethoxy)isoxazol-5-yl)-3-methylbutanoyl)-N-((R)-2,2-difluoro-1-(4-(4-methylthiazol-5-yl)phenyl)ethyl)-4-hydroxypyrrolidine-2-carboxamide]	< 2.5 nM	> 75%
Cc1ncsc1-c1ccc([C@H](CN)NC(=O)[C@@H]2C[C@@H](O)CN2C(=O)[C@@H](c2cc(OCCN3CCN(CCOc4cc(N5C6CCC5CN(c5cc(-c7ccccc7O)nnc5N)C6)ccn4)CC3)no2)C(C)C)cc1 [compound 103, (2S,4R)-N-((R)-2-amino-1-(4-(4-methylthiazol-5-yl)phenyl)ethyl)-1-((2R)-2-(3-(2-(4-(2-((4-(3-(3-amino-6-(2-hydroxyphenyl)pyridazin-4-yl)-3,8-diazabicyclo[3.2.1]octan-8-yl)pyridin-2-yl)oxy)ethyl)piperazin-1-yl)ethoxy)isoxazol-5-yl)-3-methylbutanoyl)-4-hydroxypyrrolidine-2-carboxamide]	2.5 to 10 nM	> 75%
Cc1ncsc1-c1ccc([C@H](C)NC(=O)[C@@H]2C[C@@H](O)CN2C(=O)[C@@H](c2cc(CCCOCCOCCOCCn3cc(-c4cc(-c5ccccc5O)nnc4N)cn3)no2)C(C)C)cc1 [compound 110, (2S,4R)-1-((R)-2-(3-(3-(2-(2-(2-(4-(3-amino-6-(2-hydroxyphenyl)pyridazin-4-yl)-1H-pyrazol-1-yl)ethoxy)ethoxy)ethoxy)propyl)isoxazol-5-yl)-3-methylbutanoyl)-4-hydroxy-N-((S)-1-(4-(4-methylthiazol-5-yl)phenyl)ethyl)pyrrolidine-2-carboxamide]	< 2.5 nM	> 75%
Cc1ncsc1-c1ccc([C@H](C)NC(=O)[C@@H]2C[C@@H](O)CN2C(=O)[C@@H](c2cc(OCCN3CCN(CCC#CCn4cc(-c5cc(-c6ccccc6O)nnc5N)cn4)CC3)no2)C(C)C)cc1 [compound 112, (2S,4R)-1-((R)-2-(3-(2-(4-(5-(4-(3-amino-6-(2-hydroxyphenyl)pyridazin-4-yl)-1H-pyrazol-1-yl)pent-3-yn-1-yl)piperazin-1-yl)ethoxy)isoxazol-5-yl)-3-methylbutanoyl)-4-hydroxy-N-((S)-1-(4-(4-methylthiazol-5-yl)phenyl)ethyl)pyrrolidine-2-carboxamide]	< 2.5 nM	> 75%
Cc1ncsc1-c1ccc([C@H](C)NC(=O)[C@@H]2C[C@@H](O)CN2C(=O)[C@@H](c2cc(OCCN3CCN(CC#CCn4cc(-c5cc(-c6ccccc6O)nnc5N)cn4)CC3)no2)C(C)C)cc1 [compound 113, (2S,4R)-1-((R)-2-(3-(2-(4-(4-(4-(3-amino-6-(2-hydroxyphenyl)pyridazin-4-yl)-1H-pyrazol-1-yl)but-2-yn-1-yl)piperazin-1-yl)ethoxy)isoxazol-5-yl)-3-methylbutanoyl)-4-hydroxy-N-((S)-1-(4-(4-methylthiazol-5-yl)phenyl)ethyl)pyrrolidine-2-carboxamide]	< 2.5 nM	> 75%
Cc1ncsc1-c1ccc([C@H](C)NC(=O)[C@@H]2C[C@@H](O)CN2C(=O)[C@@H](c2onc(OCCN3CCN(CCOc4cc(N5C6CCC5CN(c5cc(-c7ccccc7O)nnc5N)C6)ccn4)CC3)c2F)C(C)C)cc1 [compound 114, (2S,4R)-1-((2R)-2-(3-(2-(4-(2-((4-(3-(3-amino-6-(2-hydroxyphenyl)pyridazin-4-yl)-3,8-diazabicyclo[3.2.1]octan-8-yl)pyridin-2-yl)oxy)ethyl)piperazin-1-yl)ethoxy)-4-fluoroisoxazol-5-yl)-3-methylbutanoyl)-4-hydroxy-N-((S)-1-(4-(4-methylthiazol-5-yl)phenyl)ethyl)pyrrolidine-2-carboxamide]	< 2.5 nM	> 75%
